Test results from patent US20230167088A1, “1-PYRAZINYLPYRAZOLYL-3-OXYALKYL ACIDS AND THEIR DERIVATIVES, AND THEIR USE FOR CONTROL OF UNDESIRED PLANT GROWTH” (BAYER AKTIENGESELLSCHAFT, priority 2020, published 2023).

How the values were obtained:
POLCO [1] = assay: Herbicidal pre-emergence action 2a (greenhouse pots, visual scoring); format: in vivo, Polygonum convolvulus; details: dosage 320 g/ha, visual scoring after about 3 weeks vs untreated controls
How it was run: (§1)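 Visual scoring after roughly 3 weeks, as percent effect relative to untreated pots (0% = like control, 100% = dead). Seeds were covered with soil, then the surface received aqueous WP/EC suspension or emulsion (0.5% additive, 600 l/ha) at 320 and/or 80 g/ha.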

ABUTH [2] = assay: as above; format: in vivo, Abutilon theophrasti; details: dosage 320 g/ha, visual scoring after about 3 weeks vs untreated controls
From the text: [table] a) Seeds of monocotyledonous and dicotyledonous weed plants and crop plants are placed in plastic or organic plant pots and covered with soil. The compounds of the invention, formulated in the form of wettable powders (WP) or as emulsion concentrates (EC), are then applied onto the surface of the covering soil as aqueous suspension or emulsion with addition of 0.5% additive at a water application rate of 600 1/ha (converted). After the treatment, the pots are placed in a greenhouse and kept under good growth conditions for the trial plants. After about 3 weeks, the effect of the preparations is scored visually in comparison with untreated controls as percentages. For example, 100% activity=the plants have died, 0% activity=like control plants. Tables B1 to B15 below show the effects of selected compounds of the general formula (I) according to Tables 1 and 2 on various harmful plants and an application rate corresponding to 320 g/ha and/or 80 g/ha, which were obtained by the experimental procedure mentioned above.

PHBPU [3] = assay: Herbicidal post-emergence action 1a (greenhouse pots, visual rating); format: in vivo, Pharbitis purpurea; details: visual rating about 3 weeks after treatment
How it was run: (§2)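 Visual scoring versus untreated plants (100% = plants dead, 0% = as control) followed roughly 3 weeks in the greenhouse after treatment. Plants grown in sandy loam pots had been sprayed on green parts at the one-leaf stage, 2–3 weeks post-sowing, with aqueous WP/EC preparations containing 0.5% additive, 600 l/ha, at 320 and/or 80 g/ha.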

ALOMY [4] = assay: Herbicidal pre-emergence action 2a (greenhouse pots, visual scoring); format: in vivo, Alopecurus myosuroides; details: dosage 320 g/ha, visual scoring after about 3 weeks
How it was run: as §1

AVEFA [5] = assay: as above; format: in vivo, Avena fatua; details: dosage 320 g/ha, visual scoring after about 3 weeks
How it was run: as §1

AMARE [6] = assay: Herbicidal post-emergence action 1a (greenhouse pots, visual rating); format: in vivo, Amaranthus retroflexus; details: visual rating about 3 weeks after treatment
How it was run: as §2

ABUTH [7] = assay: as above; format: in vivo, Abutilon theophrasti; details: visual rating about 3 weeks after treatment
How it was run: as §2

MATIN [8] = assay: Herbicidal pre-emergence action 2a (greenhouse pots, visual scoring); format: in vivo, Matricaria inodora; details: dosage 320 g/ha, visual scoring after about 3 weeks vs untreated controls
How it was run: as §1

SETVI [9] = assay: as above; format: in vivo, Setaria viridis; details: dosage 320 g/ha, visual scoring after about 3 weeks vs untreated controls
How it was run: as §1

VERPE [10] = assay: Herbicidal post-emergence action 1a (greenhouse pots, visual rating); format: in vivo, Veronica persica; details: visual rating about 3 weeks after treatment
How it was run: as §2

AMARE [11] = assay: Herbicidal pre-emergence action 2a (greenhouse pots, visual scoring); format: in vivo, Amaranthus retroflexus; details: dosage 320 g/ha, visual scoring after about 3 weeks vs untreated controls
How it was run: as §1

ECHCG [12] = assay: Herbicidal post-emergence action 1a (greenhouse pots, visual rating); format: in vivo, Echinochloa crus-galli; details: rated visually about 3 weeks after treatment, 100% = plants have died, 0% = like control plants
How it was run: as §2

LOLRI [13] = assay: Herbicidal pre-emergence action 2a (greenhouse pots, visual scoring); format: in vivo, Lolium rigidum; details: dosage 320 g/ha, visual scoring after about 3 weeks vs untreated controls
How it was run: as §1

SETVI [14] = assay: Herbicidal post-emergence action 1a (greenhouse pots, visual rating); format: in vivo, Setaria viridis; details: rated visually about 3 weeks after treatment, 100% = plants have died, 0% = like control plants
How it was run: as §2

AVEFA [15] = assay: as above; format: in vivo, Avena fatua; details: rated visually about 3 weeks after treatment, 100% = plants have died, 0% = like control plants
How it was run: as §2

PHBPU [16] = assay: Herbicidal pre-emergence action 2a (greenhouse pots, visual scoring); format: in vivo, Pharbitis purpurea; details: dosage 320 g/ha, visual scoring after about 3 weeks vs untreated controls
How it was run: as §1

ALOMY [17] = assay: Herbicidal post-emergence action 1a (greenhouse pots, visual rating); format: in vivo, Alopecurus myosuroides; details: rated visually about 3 weeks after treatment, 100% = plants have died, 0% = like control plants
How it was run: as §2

ECHCG [18] = assay: Herbicidal pre-emergence action 2a (greenhouse pots, visual scoring); format: in vivo, Echinochloa crus-galli; details: dosage 320 g/ha, visual scoring after about 3 weeks
How it was run: as §1

POLCO [19] = assay: Herbicidal post-emergence action 1a (greenhouse pots, visual rating); format: in vivo, Polygonum convolvulus; details: visual rating about 3 weeks after treatment
How it was run: as §2

VERPE [20] = assay: Herbicidal pre-emergence action 2a (greenhouse pots, visual scoring); format: in vivo, Veronica persica; details: dosage 320 g/ha, visual scoring after about 3 weeks vs untreated controls
How it was run: as §1

LOLRI [21] = assay: Herbicidal post-emergence action 1a (greenhouse pots, visual rating); format: in vivo, Lolium rigidum; details: rated visually about 3 weeks after treatment, 100% = plants have died, 0% = like control plants
How it was run: as §2

MATIN [22] = assay: as above; format: in vivo, Matricaria inodora; details: visual rating about 3 weeks after treatment
How it was run: as §2

| SMILES | Pre-emergence action against POLCO in % (POLCO [1]) | Pre-emergence action against ABUTH in % (ABUTH [2]) | Post-emergence action against PHBPU in % (PHBPU [3]; dosage 80 g/ha) | Post-emergence action against PHBPU in % (PHBPU [3]; dosage 320 g/ha) | Pre-emergence action against ALOMY in % (ALOMY [4]) | Pre-emergence action against AVEFA in % (AVEFA [5]) | Pre-emergence action against MATIN in % (MATIN [8]) | Pre-emergence action against SETVI in % (SETVI [9]) | Post-emergence action against VERPE in % (VERPE [10]; dosage 80 g/ha) | Post-emergence action against VERPE in % (VERPE [10]; dosage 320 g/ha) | Pre-emergence action against AMARE in % (AMARE [11]) | Post-emergence action against ECHCG in % (ECHCG [12]; Dosage 320 g/ha) | Pre-emergence action against LOLRI in % (LOLRI [13]) | Post-emergence action against SETVI in % (SETVI [14]; Dosage 80 g/ha) | Post-emergence action against SETVI in % (SETVI [14]; Dosage 320 g/ha) | Post-emergence action against AVEFA in % (AVEFA [15]; Dosage 320 g/ha) | Pre-emergence action against PHBPU in % (PHBPU [16]) | Pre-emergence action against ECHCG in % (ECHCG [18]) | Pre-emergence action against VERPE in % (VERPE [20]) | Post-emergence action against LOLRI in % (LOLRI [21]; Dosage 320 g/ha) | further results |
| --- | --- | --- | --- | --- | --- | --- | --- | --- | --- | --- | --- | --- | --- | --- | --- | --- | --- | --- | --- | --- | --- |
| CCOC(=O)[C@@H](C)Oc1nn(-c2cnccn2)c(-c2cncc(F)c2)c1Cl [Example I-98] | 90% | 90% | 90% | 90% | 90% | 80% | 90% | 100% | 80% | 80% | 100% | 80% | 90% | 80% | 80% | 80% | 80% | 100% | 100% | 90% | Post-emergence action against AMARE in % (AMARE [6]; dosage 320 g/ha): 80%; Post-emergence action against ABUTH in % (ABUTH [7]; dosage 80 g/ha): 80%; Post-emergence action against ABUTH in % (ABUTH [7]; dosage 320 g/ha): 80%; Post-emergence action against ECHCG in % (ECHCG [12]; Dosage 80 g/ha): 80%; Post-emergence action against AVEFA in % (AVEFA [15]; Dosage 80 g/ha): 80%; Post-emergence action against ALOMY in % (ALOMY [17]; Dosage 80 g/ha): 80%; Post-emergence action against ALOMY in % (ALOMY [17]; Dosage 320 g/ha): 80%; Post-emergence action against POLCO in % (POLCO [19]; dosage 320 g/ha): 80% |
| O=C(O)COc1nn(-c2cnccn2)c(-c2cncc(F)c2)c1Cl [Example I-92] | 90% | 90% | 80% | 90% | 90% | 100% | 100% | 100% | 80% | 90% | 100% | 90% | 100% | 80% | 80% | 90% | 90% | 90% | 100% | 90% | Post-emergence action against AMARE in % (AMARE [6]; dosage 80 g/ha): 80%; Post-emergence action against AMARE in % (AMARE [6]; dosage 320 g/ha): 90%; Post-emergence action against ABUTH in % (ABUTH [7]; dosage 320 g/ha): 90%; Post-emergence action against ECHCG in % (ECHCG [12]; Dosage 80 g/ha): 90%; Post-emergence action against AVEFA in % (AVEFA [15]; Dosage 80 g/ha): 90%; Post-emergence action against ALOMY in % (ALOMY [17]; Dosage 320 g/ha): 80% |
| C[C@@H](Oc1nn(-c2cnccn2)c(-c2cncc(F)c2)c1Br)C(=O)O [Example I-96] | 100% | 90% | 90% | 90% | 100% | 90% | 100% | 100% | 90% | 90% | 100% | 90% | 100% | 90% | 90% | 90% | 90% | 100% | 100% | 100% | Post-emergence action against ECHCG in % (ECHCG [12]; Dosage 80 g/ha): 80%; Post-emergence action against ALOMY in % (ALOMY [17]; Dosage 320 g/ha): 100%; Post-emergence action against POLCO in % (POLCO [19]; dosage 80 g/ha): 80%; Post-emergence action against POLCO in % (POLCO [19]; dosage 320 g/ha): 80%; Post-emergence action against LOLRI in % (LOLRI [21]; Dosage 80 g/ha): 100%; Post-emergence action against MATIN in % (MATIN [22]; dosage 80 g/ha): 80%; Post-emergence action against MATIN in % (MATIN [22]; dosage 320 g/ha): 90% |
| CCOC(=O)COc1nn(-c2cnccn2)c(-c2cncc(F)c2)c1Cl [Example I-91] | 90% | 90% | – | 90% | 80% | 90% | 100% | 100% | 80% | 80% | 100% | 90% | 100% | 80% | 90% | 90% | 90% | 100% | 90% | 90% | Post-emergence action against AMARE in % (AMARE [6]; dosage 80 g/ha): 80%; Post-emergence action against AMARE in % (AMARE [6]; dosage 320 g/ha): 90%; Post-emergence action against ABUTH in % (ABUTH [7]; dosage 80 g/ha): 80%; Post-emergence action against ABUTH in % (ABUTH [7]; dosage 320 g/ha): 80%; Post-emergence action against POLCO in % (POLCO [19]; dosage 80 g/ha): 80%; Post-emergence action against POLCO in % (POLCO [19]; dosage 320 g/ha): 80% |
